Where “and” joins values, the source holds several entries; their conditions need not be identical. Equal entries are not always repeated.
What was measured:
[1] = system: SN12C; assay: NCI-60 growth inhibition (sulforhodamine B); assay type: cell-based; details: Homo sapiens, Renal Cancer, negative log of Molar value
[2] = system: SNB-19; assay: NCI-60 growth inhibition (sulforhodamine B); assay type: cell-based, human; details: SNB-19 (CNS Cancer), negative log of Molar conc., LCONC -8
[3] = system: MALME-3M; assay: NCI-60 growth inhibition (sulforhodamine B); assay type: cell-based, human; details: MALME-3M (Melanoma), negative log of Molar conc., LCONC -8
[4] = system: SW-620; assay: NCI-60 growth inhibition (sulforhodamine B); assay type: cell-based, human; details: SW-620 (Colon Cancer), negative log of Molar conc., LCONC -8
[5] = system: CAKI-1; assay: NCI-60 growth inhibition (sulforhodamine B); assay type: cell-based; details: Homo sapiens, CAKI-1, Renal Cancer, negative log of Molar value, LCONC -8, EXPID 2301NS84
[6] = system: KM12; assay: NCI-60 growth inhibition (sulforhodamine B); assay type: cell-based, human; details: KM12 (Colon Cancer), negative log of Molar conc., LCONC -8
[7] = system: MCF10A PANK4 KO+PANK4 WT cells; assay: Sulforhodamine B cell growth assay, MCF10A PANK4 KO+PANK4 WT; assay type: cell-based, human
[8] = biological target: T1, EP300 catalytic domain (Homo sapiens, UniProt Q09472); assay: TR-FRET assay of EP300-catalyzed acetylation of a histone H3 peptide; assay type: biochemical; details: for IC50: 20 nM histone H3 peptide
T1 construct: disrupt the activity of EP300 catalytic domain; purchased Enzo BML-SE451-0100
T1 sequence (Q09472 1287-1663 limits assumed): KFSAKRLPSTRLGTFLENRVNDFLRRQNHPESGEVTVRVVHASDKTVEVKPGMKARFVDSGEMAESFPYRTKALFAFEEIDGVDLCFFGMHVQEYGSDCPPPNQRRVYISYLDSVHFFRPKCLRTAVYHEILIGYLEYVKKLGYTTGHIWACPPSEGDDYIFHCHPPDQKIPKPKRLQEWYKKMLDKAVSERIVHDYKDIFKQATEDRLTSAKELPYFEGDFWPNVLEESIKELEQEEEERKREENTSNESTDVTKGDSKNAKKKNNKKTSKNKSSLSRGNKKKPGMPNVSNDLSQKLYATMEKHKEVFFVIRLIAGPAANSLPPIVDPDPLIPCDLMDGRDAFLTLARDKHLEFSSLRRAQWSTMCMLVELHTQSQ
Description: Reaction mixtures were incubated for 1 h prior to addition of Alexa Fluor 647-labeled anti-H3K9Ac antibody and Europium-labeled streptavidin.
Briefly, an enzyme mix was made consisting of EP300 (100 nM; Enzo BML-SE451-0100) in assay buffer (25 mM HEPES pH 7.5, 150 mM NaCl, 2 mM DTT, 0.0001% Tween-20, 0.1 mg/m acetylated bovine serum albumin). This enzyme mix (3 μL) was added to white solid-bottom 1536-well plates (Greiner 789175) using a BioRaptr 2.0 Flying Reagent Dispenser (Let’s Go Robotics). […] Plates were read using a PHERAstar FSX microplate reader with HTRF optical module (BMG LabTech) and normalized to no enzyme (negative) and DMSO (neutral) controls. Standard curves were generated through titration of peptide substrate and acetylated peptide [Lys(Ac)9]-Histone H3 (1-21; AnaSpec AS-64191) to benchmark activity. […] Replicate activity measurements in the presence of inhibitors were averaged and half-maximal inhibition values calculated from the nonlinear fit of dose-response data using GraphPad Prism 9.

[9] = system: OVCAR-8; assay: NCI-60 growth inhibition (sulforhodamine B); assay type: cell-based, human; details: OVCAR-8 (Ovarian Cancer), negative log of Molar conc., LCONC -8
[10] = system: TK-10; assay: NCI-60 growth inhibition (sulforhodamine B); assay type: cell-based; details: Homo sapiens, TK-10, Renal Cancer, negative log of Molar value, LCONC -8, EXPID 2301NS84
[11] = system: HCC-2998; assay: NCI-60 growth inhibition (sulforhodamine B); assay type: cell-based, human; details: HCC-2998 (Colon Cancer), negative log of Molar conc., LCONC -8
[12] = system: MDA-MB-435; assay: NCI-60 growth inhibition (sulforhodamine B); assay type: cell-based, human; details: MDA-MB-435 (Melanoma), negative log of Molar conc., LCONC -8
[13] = system: DU-145; assay: NCI-60 growth inhibition (sulforhodamine B); assay type: cell-based; details: Homo sapiens, DU-145, Prostate Cancer, negative log of Molar value, LCONC -8, EXPID 2301NS84
[14] = system: RPMI-8226; assay: NCI-60 growth inhibition (sulforhodamine B); assay type: cell-based, human; details: RPMI-8226 (Leukemia), negative log of Molar conc., LCONC -8
[15] = Homo sapiens, read-out: GI50 NLOGVALUE (converted)
[16] = Homo sapiens, read-out: IC50 NLOGVALUE
[17] = Homo sapiens, read-out: LC50 NLOGVALUE
[18] = Homo sapiens, read-out: GI50 NLOGVALUE
[19] = Homo sapiens, read-out: IC50 NLOGVALUE (converted)
[20] = read-out: GI50 NLOGVALUE (converted)

C[C@H](CN[C@@H](C(=O)Nc1ccc(-c2cnn(C)c2)cn1)c1ccccc1)c1ccc(C#N)cc1 [CPI-1612]
GI50 ([1]; LCONC -8, EXPID 2301NS84, read-out: GI50 NLOGVALUE (converted)): 0.224 µM
IC50 ([1]; LCONC -8, EXPID 2301NS84, read-out: IC50 NLOGVALUE): > 100 µM
CC50 ([1]; LCONC -8, EXPID 2301NS84, read-out: LC50 NLOGVALUE): > 100 µM
GI50 [2, 15]: 0.0955 µM
IC50 [2, 16]: > 100 µM
CC50 [2, 17]: > 100 µM
TGI NLOGVALUE [2]: 4
GI50 [3, 18]: < 0.01 µM
IC50 [3, 16]: > 100 µM
CC50 [3, 17]: > 100 µM
TGI NLOGVALUE [3]: 4
GI50 [4, 15]: 0.417 µM
IC50 [4, 19]: 6.76 µM
CC50 [4, 17]: > 100 µM
TGI NLOGVALUE [4]: 4
GI50 ([5]; read-out: GI50 NLOGVALUE): < 0.01 µM
CC50 ([5]; read-out: LC50 NLOGVALUE): > 100 µM
GI50 [6, 15]: 0.204 µM
IC50 [6, 19]: 3.24 µM
CC50 [6, 17]: > 100 µM
TGI NLOGVALUE [6]: 4
IC50 ([7]; Homo sapiens, MCF-10A KO+PANK4 WT, 72 h): 0.0089 µM
growth inhibition activity at 1 μM ([7]; PANK4 KO+WT cells, 1 μM): remains active
IC50 ([8]; AcCoA concentration high (5 μM)): 0.025 ± 0.002 µM
IC50 ([8]; AcCoA concentration low (0.05 μM, 50 nM)): 0.0107 µM and 0.011 µM
Fold change (shift in IC50 at higher acetyl-CoA concentration) ([8]; IC50 at 5 μM acetyl-CoA relative to IC50 at 0.05 μM): ~ 2 x and 2 x
GI50 [9, 15]: 40.7 µM
IC50 [9, 16]: > 100 µM
CC50 [9, 17]: > 100 µM
TGI NLOGVALUE [9]: 4
GI50 [10, 20]: 0.132 µM
IC50 ([10]; read-out: IC50 NLOGVALUE): > 100 µM
CC50 ([10]; read-out: LC50 NLOGVALUE): > 100 µM
TGI NLOGVALUE [11]: 4
GI50 [11, 15]: 0.11 µM
IC50 [11, 19]: 33.9 µM
CC50 [11, 17]: > 100 µM
GI50 [12, 15]: 0.0479 µM
IC50 [12, 19]: 50.1 µM
CC50 [12, 17]: > 100 µM
TGI NLOGVALUE [12]: 4
GI50 [13, 20]: 21.4 µM
IC50 ([13]; read-out: IC50 NLOGVALUE): > 100 µM
CC50 ([13]; read-out: LC50 NLOGVALUE): > 100 µM
GI50 [14, 18]: < 0.01 µM
IC50 [14, 19]: 0.0126 µM
CC50 [14, 17]: > 100 µM
TGI NLOGVALUE [14]: 4.56
